Assay [1] deals with BM CD34−KSL HSCs. The assay is described as follows: 7 day culture of non-irradiated BM CD34−KSL cells in TSF media. In kind it is cell-based, mouse. Conditions: for Supplementary Figure 3a (center panel): 7 day culture of BM CD34−KSL cells / Supplementary Figure 3a (left panel): 7 day culture of BM CD34−KSL cells / Supplementary Figure 3a (right panel): 7 day culture of BM CD34−KSL cells: replicates. From the text:
BM cells were first treated with ACK lysis buffer (Sigma Aldrich) and lineage-committed cells were removed using a Direct Lineage Cell Depletion Kit (Miltenyi Biotec, #130-110-470, 1:5). Lin^− cells were stained with APC-Cy7-conjugated anti-mouse Sca1 (BD Biosciences, #560654, 1:100), PE-conjugated anti-ckit (BD Biosciences, #553355, 1:100), V450 lineage cocktail (BD Biosciences, #561301, 1:10), and FITC-conjugated anti-CD34 (BD Biosciences, #553733, 1:100) antibodies. Sterile cell sorting was conducted on a BD FACS-Aria cytometer. Purified KSL cells and CD34^−c-kit^+sca-1^+Lin^− (CD34^−KSL) cells were collected into IMDM (Life Technologies) + 10% FBS + 1% penicillin–streptomycin.
CFC assays (colony-forming unit-granulocyte monocyte), burst-forming unit-erythroid, and CFU-GEMM were performed using MethoCult GF M3434 (Stemcell Technologies)[6]. For all in vitro assays, BM CD34^−KSL cells, KSL cells, and Lin^− cells were cultured in TSF media (IMDM, 10% FBS, 1% pen-strep, 20 ng/mL recombinant mouse TPO, 125 ng/mL recombinant mouse SCF, 50 ng/mL recombinant mouse Flt3 ligand). Recombinant mouse SCF, Flt3 ligand, and TPO were purchased from R&D Systems. For competitive repopulation assays, BM cells were isolated from donor 10–12-week-old female CD45.2^+ mice. Recipient 10-week-old female CD45.1^+ B6.SJL mice were irradiated with 950 cGy TBI using a Cs137 irradiator and donor BM cells were administered via tail vein injection along with a competing dose of 1 × 10^5 non-irradiated host BM cells. Multilineage donor hematopoietic cell engraftment was measured in the PB by flow cytometry.

The target of assay [2] is T1, CD45 (Protein Tyrosine Phosphatase, receptor type C) (Homo sapiens, UniProt P08575).
T1 construct: purchased Eurofins Pharma Discovery Services UK
T1 sequence (P08575 26-1306, species assumed): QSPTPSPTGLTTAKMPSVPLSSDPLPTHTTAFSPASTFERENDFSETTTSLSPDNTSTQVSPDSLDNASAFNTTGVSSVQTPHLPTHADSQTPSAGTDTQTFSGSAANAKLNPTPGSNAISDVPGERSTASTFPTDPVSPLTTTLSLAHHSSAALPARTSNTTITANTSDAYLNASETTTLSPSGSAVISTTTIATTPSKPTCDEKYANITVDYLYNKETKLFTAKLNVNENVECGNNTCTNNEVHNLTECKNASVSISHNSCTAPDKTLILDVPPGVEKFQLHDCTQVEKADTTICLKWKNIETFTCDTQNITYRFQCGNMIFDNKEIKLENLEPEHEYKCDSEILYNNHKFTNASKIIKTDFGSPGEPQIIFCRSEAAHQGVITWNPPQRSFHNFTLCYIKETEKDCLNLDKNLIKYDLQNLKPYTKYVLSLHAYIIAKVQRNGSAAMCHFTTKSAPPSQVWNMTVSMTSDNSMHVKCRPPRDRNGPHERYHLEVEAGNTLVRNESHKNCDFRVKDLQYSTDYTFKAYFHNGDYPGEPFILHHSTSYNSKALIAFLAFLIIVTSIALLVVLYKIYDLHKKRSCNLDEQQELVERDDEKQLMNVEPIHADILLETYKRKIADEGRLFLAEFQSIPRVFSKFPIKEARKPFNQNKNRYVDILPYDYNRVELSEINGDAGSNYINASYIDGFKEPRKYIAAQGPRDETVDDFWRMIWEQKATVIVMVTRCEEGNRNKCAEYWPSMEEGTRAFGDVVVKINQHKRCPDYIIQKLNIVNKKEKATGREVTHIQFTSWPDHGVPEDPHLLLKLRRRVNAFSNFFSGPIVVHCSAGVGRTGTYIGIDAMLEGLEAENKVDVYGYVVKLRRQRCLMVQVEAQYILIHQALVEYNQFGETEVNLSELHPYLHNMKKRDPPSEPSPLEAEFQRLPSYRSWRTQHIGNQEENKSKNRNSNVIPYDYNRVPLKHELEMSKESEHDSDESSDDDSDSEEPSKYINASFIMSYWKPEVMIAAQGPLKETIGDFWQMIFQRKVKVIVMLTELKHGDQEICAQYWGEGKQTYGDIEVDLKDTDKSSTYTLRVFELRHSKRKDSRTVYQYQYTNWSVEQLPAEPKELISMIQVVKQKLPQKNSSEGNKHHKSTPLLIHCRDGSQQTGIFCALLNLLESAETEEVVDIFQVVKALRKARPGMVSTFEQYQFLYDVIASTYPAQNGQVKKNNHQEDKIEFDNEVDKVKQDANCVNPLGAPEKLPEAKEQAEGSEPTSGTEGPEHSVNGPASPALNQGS
The assay is described as follows: PhosphataseProfiler screen: CD45. The following applies: replicates. In kind it is biochemical. On the procedure:
(§1) Compound DJ001 was evaluated in a PhosphataseProfiler™ screen at 10 μM and 1 μM (2.7 μg/mL and 0.27 μg/mL) concentrations at Eurofins Pharma Discovery Services UK (Study number UK022-0004033) against a panel of 21 Phosphatases. In each experiment, the respective reference antagonist/agonist was tested directly with DJ001 and the data were compared with historical values determined at Eurofins. DJ001 compound inhibition was calculated as percentage inhibition of the enzymatic activity compared with control.

For assay [3], the target named is T2, LMPTP-B (Low Molecular Weight Protein Tyrosine phosphatase B) (Homo sapiens, UniProt P24666).
T2 construct: purchased Eurofins Pharma Discovery Services UK
T2 sequence (P24666 1-158 isoform P24666-2, species assumed): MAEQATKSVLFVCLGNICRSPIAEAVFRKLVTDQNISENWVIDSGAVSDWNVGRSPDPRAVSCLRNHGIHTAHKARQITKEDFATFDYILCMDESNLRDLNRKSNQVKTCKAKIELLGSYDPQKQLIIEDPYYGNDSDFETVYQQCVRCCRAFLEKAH
The assay is described as follows: PhosphataseProfiler screen: LMPTP-B. Conditions: replicates. In kind it is biochemical. The protocol: as §1

Assay [4] addresses T3, RPTPμ (Receptor Protein Tyrosine Phosphatase Mu) (Homo sapiens, UniProt P28827).
T3 construct: purchased Eurofins Pharma Discovery Services UK
The assay is described as follows: PhosphataseProfiler screen: RPTPμ. In kind it is biochemical. Conditions: replicates. The protocol:
as §1

In assay [5] the target is T4, SHP-2 (Protein-Tyrosine Phosphatase 2C) (Homo sapiens, UniProt Q06124).
T4 construct: purchased Eurofins Pharma Discovery Services UK
T4 sequence (Q06124 whole entry, species assumed): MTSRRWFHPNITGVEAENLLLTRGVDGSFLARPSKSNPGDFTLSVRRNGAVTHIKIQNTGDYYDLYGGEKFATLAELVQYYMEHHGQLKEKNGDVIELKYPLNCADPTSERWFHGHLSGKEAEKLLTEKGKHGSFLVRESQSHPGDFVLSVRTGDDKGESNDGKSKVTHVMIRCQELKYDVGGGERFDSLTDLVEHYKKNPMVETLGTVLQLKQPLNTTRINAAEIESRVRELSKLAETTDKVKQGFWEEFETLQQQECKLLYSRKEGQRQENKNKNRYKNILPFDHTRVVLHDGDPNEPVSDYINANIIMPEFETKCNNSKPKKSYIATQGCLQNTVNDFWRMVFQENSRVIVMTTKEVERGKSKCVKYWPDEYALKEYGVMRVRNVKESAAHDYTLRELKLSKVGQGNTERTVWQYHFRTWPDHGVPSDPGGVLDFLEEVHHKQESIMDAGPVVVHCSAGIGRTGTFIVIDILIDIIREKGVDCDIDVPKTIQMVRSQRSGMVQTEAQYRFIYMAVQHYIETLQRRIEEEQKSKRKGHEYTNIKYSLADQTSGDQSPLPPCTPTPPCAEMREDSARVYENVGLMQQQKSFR
The assay is described as follows: PhosphataseProfiler screen: SHP-2. The format is biochemical. The following applies: replicates. On the procedure: as §1

Assay [6] has as its target T5, PTPMEG2 (Protein Tyrosine Phosphatase Non-Receptor Type 9) (Homo sapiens, UniProt P43378).
T5 construct: purchased Eurofins Pharma Discovery Services UK
In words: PhosphataseProfiler screen: PTPMEG2. In kind it is biochemical. Conditions: replicates. The protocol:
as §1

For assay [7], the system named is BCL-XL in BM KSL cells. In words: BCL-XL protein intracellular flow cytometry of BM KSL cells. The format is cell-based, mouse. The protocol: Intracellular flow cytometric analysis was performed on irradiated (300 cGy) or non-irradiated, sorted KSL cells after treatment with 1 μg/mL DJ001 or control (equal volumes of DMSO) for 24 h. At 24 h after irradiation, cells were fixed with 4% PFA for 10 min, followed by permeabilization using 0.25% saponin in PBS. Cells were washed again and stained with antibody at the recommended concentrations for 30 min at RT. Intracellular antibodies and phospho-flow antibodies used were as follows: FITC-conjugated anti-BCL-XL (Abcam, #26148, 1:100), active RAC1-GTP antibody (NewEast Biosciences, #26903, 1:100) and anti-PAK1 (phospho S144) + PAK2 (phospho S141) + PAK3 (phospho S154) antibody (Abcam, #40795, 1:100), and FITC-conjugated goat anti-rabbit IgG H&L (Abcam, #97050, 1:200).
(In general: Flow cytometry measures light scatter and fluorescence of single cells or particles in a stream.)

The subject of assay [8] is human CD34+CD38− cells. The assay is described as follows: BCL2L1 and MCL-1 gene expression in irradiated human CD34+CD38− cells (qPCR). In kind it is cell-based. From the text:
For all studies, RNA was isolated using the Qiagen RNeasy micro kit (Qiagen). RNA was reverse transcribed using the High-Capacity cDNA Reverse Transcription Kit (ThermoFisher Scientific) and was then used for quantitative PCR with SYBR Select Master Mix (Life Technologies). Values were normalized to housekeeping gene Gapdh/GAPDH and given as ΔΔCt values normalized to media-treated, non-irradiated BM KSL cells (2(−ΔΔC(T)) method)[67].
On the technique in general: Quantitative PCR measures a nucleic acid by following its amplification.

Assay [9] has as its system RAC1-GTP in BM lin− cells. In words: G-LISA activation assay: RAC1-GTP. Conditions: for RAC1-GTP level (G-LISA): Supplementary Figure 7c. The format is cell-based, mouse. On the procedure: The RAC1-GTP, RHOA-GTP, and CDC42-GTP activation levels in BM lin^− cells were measured using a colorimetric-based RAC1-, RHOA-, and CDC42 G-LISA Activation Assay Kit (Cytoskeleton, Inc.). BM cells from femurs and tibias were isolated from 12-week-old Ptprs^+/+ and Ptprs^−/− mice. Cells were then depleted of lineage-committed cells with Direct Lineage Cell Depletion Kit (Miltenyi Biotec, #130-110-470; 1:5). The BM lin^− cell fraction was then serum starved in Iscove’s modified Dulbecco’s medium (IMDM) and treated with either vehicle (equal amount of DMSO) or 1 μg/mL DJ001 for 10 min at 37 °C. After treatment, cells were washed with ice-cold PBS and then placed in lysis buffer supplemented with protease inhibitor. Lysate concentrations were measured by Pierce^TM BCA Protein Assay Kit (ThermoFisher Scientific). G-LISA was performed according to the manufacturer’s instructions. Briefly, 12.5 μg of lysates was added to a GTP-binding protein pre-coated plate and active RAC1-GTP, RHOA-GTP, or CDC42-GTP levels were measured at 490 nm using a PowerWave XS2 microplate reader (BioTek).

Where [10] appears, read: irradiated human CD34+CD38− cells, qPCR, replicates.

Each structure is given as a SMILES string. Several values for one entry are separate records, joined by “and”; a condition that tells them apart may be missing. Equal entries are not always repeated.

T3 sequence (P28827 21-1452, species assumed): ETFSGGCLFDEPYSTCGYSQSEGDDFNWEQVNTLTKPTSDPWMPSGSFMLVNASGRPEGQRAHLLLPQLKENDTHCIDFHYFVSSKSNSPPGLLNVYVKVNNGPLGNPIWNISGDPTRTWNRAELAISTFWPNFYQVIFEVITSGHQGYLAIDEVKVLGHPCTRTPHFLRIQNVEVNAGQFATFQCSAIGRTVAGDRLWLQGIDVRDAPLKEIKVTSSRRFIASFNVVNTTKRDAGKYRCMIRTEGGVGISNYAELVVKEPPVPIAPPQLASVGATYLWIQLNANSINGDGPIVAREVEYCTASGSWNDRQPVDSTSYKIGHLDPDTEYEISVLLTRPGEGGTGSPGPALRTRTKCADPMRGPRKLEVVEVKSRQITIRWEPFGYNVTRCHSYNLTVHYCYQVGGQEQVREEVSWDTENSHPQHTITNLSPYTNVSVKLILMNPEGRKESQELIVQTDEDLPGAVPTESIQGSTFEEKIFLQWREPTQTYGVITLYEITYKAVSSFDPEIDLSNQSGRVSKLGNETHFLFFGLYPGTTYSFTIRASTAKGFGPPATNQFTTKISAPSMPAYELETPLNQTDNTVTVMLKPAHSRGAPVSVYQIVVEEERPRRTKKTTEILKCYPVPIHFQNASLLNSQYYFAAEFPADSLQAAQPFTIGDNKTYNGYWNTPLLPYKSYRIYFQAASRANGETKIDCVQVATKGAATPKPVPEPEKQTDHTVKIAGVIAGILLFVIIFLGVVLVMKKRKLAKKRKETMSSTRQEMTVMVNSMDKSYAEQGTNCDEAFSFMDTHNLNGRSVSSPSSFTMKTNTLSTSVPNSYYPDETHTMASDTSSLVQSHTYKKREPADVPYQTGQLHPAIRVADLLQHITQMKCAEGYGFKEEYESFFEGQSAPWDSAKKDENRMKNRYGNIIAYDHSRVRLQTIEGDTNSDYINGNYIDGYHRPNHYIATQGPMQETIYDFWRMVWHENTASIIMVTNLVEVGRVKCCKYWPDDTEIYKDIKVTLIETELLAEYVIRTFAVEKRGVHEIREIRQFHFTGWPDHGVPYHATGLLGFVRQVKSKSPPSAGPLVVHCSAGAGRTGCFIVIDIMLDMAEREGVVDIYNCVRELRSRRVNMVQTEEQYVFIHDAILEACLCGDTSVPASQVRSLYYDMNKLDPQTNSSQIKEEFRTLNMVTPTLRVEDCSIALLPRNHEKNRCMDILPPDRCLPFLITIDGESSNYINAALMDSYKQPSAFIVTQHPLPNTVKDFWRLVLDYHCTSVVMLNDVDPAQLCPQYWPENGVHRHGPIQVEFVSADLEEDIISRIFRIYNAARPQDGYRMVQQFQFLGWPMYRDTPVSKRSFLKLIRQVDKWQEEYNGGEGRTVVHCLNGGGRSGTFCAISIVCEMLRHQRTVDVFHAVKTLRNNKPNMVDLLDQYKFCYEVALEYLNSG
T5 sequence (P43378 whole entry): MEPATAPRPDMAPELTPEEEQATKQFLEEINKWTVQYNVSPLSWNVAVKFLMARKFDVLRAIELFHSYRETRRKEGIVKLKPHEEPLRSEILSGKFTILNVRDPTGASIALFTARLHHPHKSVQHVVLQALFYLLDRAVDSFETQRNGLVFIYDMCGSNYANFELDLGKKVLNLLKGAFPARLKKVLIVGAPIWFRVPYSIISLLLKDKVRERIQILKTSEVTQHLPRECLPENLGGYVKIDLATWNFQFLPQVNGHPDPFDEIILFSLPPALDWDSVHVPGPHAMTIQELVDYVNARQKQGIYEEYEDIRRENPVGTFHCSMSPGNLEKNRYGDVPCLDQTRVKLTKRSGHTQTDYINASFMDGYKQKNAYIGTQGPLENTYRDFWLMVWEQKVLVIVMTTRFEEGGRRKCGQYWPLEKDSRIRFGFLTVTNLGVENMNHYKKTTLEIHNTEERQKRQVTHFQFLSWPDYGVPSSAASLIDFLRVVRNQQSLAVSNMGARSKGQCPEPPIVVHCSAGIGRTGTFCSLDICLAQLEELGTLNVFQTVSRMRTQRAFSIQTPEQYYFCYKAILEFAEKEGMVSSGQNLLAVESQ

In the case of `O=C(/C=C\Nc1cccc([N+](=O)[O-])c1)c1ccccc1` [DJ001, (Z)-3-((3-nitrophenyl)amino)-1-phenylprop-2-en-1-one], the “Supplementary Figure 3a (center panel): 7 day culture of BM CD34−KSL cells” value in [1] (10 ng/mL) is 8.03 and 6.26 and 7.07 and 7.49; in [1] (100 ng/mL), 15.07 and 8.84 and 9.18 and 11.37; in assay [1] (1000 ng/mL), 16.07 and 11.49 and 11 and 12.87. Further, the “Supplementary Figure 3a (left panel): 7 day culture of BM CD34−KSL cells” value in assay [1] (10 ng/mL) was 107000 and 154000 and 141000 and 135000; in assay [1] (100 ng/mL), 127000 and 142000 and 174000 and 219000; in assay [1] (1000 ng/mL), 131000 and 209000 and 128000 and 136000. The “Supplementary Figure 3a (right panel): 7 day culture of BM CD34−KSL cells” value in assay [1] (10 ng/mL) was 8589 and 9633 and 9964 and 10109; in assay [1] (100 ng/mL), 19062 and 12549 and 15920 and 24836; in assay [1] (1000 ng/mL), 21058 and 24017 and 14076 and 17507. Further, in assay [1] (10–1,000 ng/mL DJ001, 7 days), the “percentages and numbers of BM KSL cells in culture vs control” value is “increased the percentages and numbers of BM KSL cells”. In addition, the “Supplementary Figure 1: CD45 activity” value in assay [2] (0.27 μg/mL DJ001) is 91 and 86 and 84; in assay [2] (2.7 μg/mL DJ001), 71 and 85 and 86. For the same compound, the “Supplementary Figure 1: LMPTP-B activity” value in [3] (0.27 g/mL DJ001) was 96 and 90 and 99; in [3] (2.7 g/mL DJ001), 99 and 100 and 91. Moreover, the “Supplementary Figure 1: RPTP activity” value is 83 and 98 and 86 in [4] (2.7 μg/mL DJ001); 92 and 99 and 95 in assay [4] (0.27 g/mL DJ001). For the same compound, the “Supplementary Figure 1: SHP-2 activity” value was 99 and 96 and 102 in [5] (0.27 μg/mL DJ001); 87 and 90 and 94 in assay [5] (2.7 μg/mL DJ001). Moreover, the “Supplementary Figure 1: PTP MEG2 activity” value in assay [6] (0.27 μg/mL DJ001) was 94 (2×) and 103; in assay [6] (2.7 μg/mL DJ001), 91 and 71 and 95. The BCL-XL protein levels result in assay [7] (300 cGy-irradiated BM KSL cells) is listed as “increased”. The “Figure 3h: BCL-XL protein in BM KSL cells” value in [7] (irradiated cells, replicates) was 17.43 and 16.61 and 16.35 and 15.49 and 16.56 and 12.16. In addition, the “expression of BCL2L1 and MCL-1” value in assay [8] (irradiated human CD34+ cells, 12 h after 300 cGy) was “increased the expression”. For the same compound, the “Figure 5d: gene expression, BCL-XL” value in assay [8] (setting [10]) was 7.91 and 7.15 and 7.38. In [8] (setting [10]), the “Figure 5d: gene expression, MCL1” value was 3.75 and 3.41 and 4.98.
For the compound `O=C(/C=C\Nc1cc(F)cc(F)c1)c1ccccc1` [DJ009, (Z)-3-((3,5-difluorophenyl)amino)-1-phenylprop-2-en-1-one], the RAC1 activation result in assay [9] (BM cells from Ptprs−/− mice, 1 μg/ml DJ001, 10 min) was “did not induce RAC1 activation”. For the same compound, the “RAC1-GTP level (G-LISA)” value in [9] (Ptprs+/+ cells) is 0.459 and 0.438 and 0.567; in [9] (Ptprs-/- cells), 0.402 and 0.353 and 0.351 and 0.292.

For the origin of these results see article PMC6694155, “PTPσ inhibitors promote hematopoietic stem cell regeneration” (Nature Communications, 2019).
